Here are results for two compounds from article PMC9558053, “Development of a novel high-throughput screen for the identification of new inhibitors of protein S-acylation” (The Journal of Biological Chemistry, 2022).

For this test, the target named is T1, human zDHHC3 (Homo sapiens, UniProt Q9NYG2).
T1 construct: expressed in transfected cells; host or cells: HEK293T
T1 sequence (Q9NYG2 1-299): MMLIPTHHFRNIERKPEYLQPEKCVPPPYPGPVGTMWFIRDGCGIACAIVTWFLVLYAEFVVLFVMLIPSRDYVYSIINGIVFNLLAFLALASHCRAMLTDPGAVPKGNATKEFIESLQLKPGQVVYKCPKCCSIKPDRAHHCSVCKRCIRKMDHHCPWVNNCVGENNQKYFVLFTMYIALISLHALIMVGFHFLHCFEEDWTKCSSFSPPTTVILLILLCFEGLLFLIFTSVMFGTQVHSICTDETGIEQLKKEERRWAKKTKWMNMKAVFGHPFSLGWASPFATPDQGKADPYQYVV
The test can be described thus: GFP-SNAP25b S-acylation in HEK293T cells co-expressing zDHHC3. The conditions noted are these: in cellulo HEK293T, compound 25 μM; for inhibition at 25 µM: HEK-293T, read-out: SNAP25 S-acylation inhibition (%), zDHHC3. Format: cell-based. As to the method: We next investigated whether the identified compounds were effective at inhibiting zDHHC enzyme isoforms other than zDHHC2 (Fig. 6 and Table 1). […] We therefore treated cells coexpressing GFP-SNAP25 and each of these zDHHC enzymes with 25 μM of TTZ-1 and TTZ-2 and studied the subsequent effect on SNAP25 S-acylation. […] Importantly, the level of enzyme expression was unaffected by the compounds. […] As any major differences in the expression levels of the different enzymes could in theory contribute to the apparent differential effects of TTZ-1 and TTZ-2, we directly compared the expression of zDHHC2, zDHHC3, zDHHC7, zDHHC15, and zDHHC17 when transfected in HEK293T cells together with GFP-SNAP25.
Figure 6 Activity of TTZ-1 and TTZ-2 against SNAP25 S-acylation by human zDHHC2, zDHHC3, zDHHC7, zDHHC15, and zDHHC17 expressed in mammalian cells.A–E, HEK293T cells were transfected with a plasmid encoding GFP-SNAP25b together with either a control plasmid pEF-BOS-HA (pEF) or a plasmid encoding either HA-tagged human zDHHC2 (zD2) (A), zDHHC3 (zD3) (B), zDHHC7 (zD7) (C), zDHHC15 (zD15) (D), or zDHHC17 (zD17) (E) for 24 h. Cells were then preincubated for 4 h with TTZ-1 or TTZ-2 (25 μM final) or DMSO control before metabolic labeling with 100 μM C16:0-azide for 4 h. Cells were lysed, and proteins having incorporated C16:0-azide were labeled by click chemistry with an alkyne-IR800 dye. Protein samples were then resolved by SDS-PAGE and transferred to nitrocellulose membranes that were first stained with an infrared-680 total protein stain. Membranes were then destained and probed with an anti-HA antibody (IR680), followed by an anti-GFP antibody (IR680). Representative images are shown, and panels are presented in the following order (from top to bottom): click chemistry signal (Click [IR800]), GFP and HA immunoblots (IR680), and Total Protein Stain (IR680). […] Three independent experiments were performed either in duplicate or in triplicate, and the quantification data were gathered on the graphs below each set of membranes. […]

Broadly, the inhibition is the change of the read-out against control, counted positive when it falls. Consider `CCCCCCCOc1ccc(C(=O)Nc2cccc3c2OC(c2nnn[nH]2)CN3)cc1` (stereo not drawn) [TTZ-1, N-(2-(1H-Tetrazol-5-yl)-3,4-dihydro-2H-benzo[b][1,4]oxazin-8-yl)-4-(heptyloxy)benzamide], for which the inhibition at 25 µM was 9 ± 4% and the “SNAP25 S-acylation inhibition (%), zDHHC3” value was “no significant effect”.

As for `O=C(Nc1cccc2c1OC(c1nnn[nH]1)CN2)c1ccc(OCCCCc2ccccc2)cc1` (stereo not drawn) [TTZ-2, N-(2-(1H-Tetrazol-5-yl)-3,4-dihydro-2H-benzo[b][1,4]oxazin-8-yl)-4-(4-phenylbutoxy)benzamide], the inhibition at 25 µM came out at 19 ± 3%.
